In patent US9687494B2, “Iminothiadiazine dioxide compounds as BACE inhibitors, compositions, and their use” (Merck Sharp & Dohme Corp., priority 2009, dated 2017):

Assays:
[1] = Solution stability, Example B (50 mM pH 7.4 phosphate buffer, 25° C., LC/MS); assay type: physicochemical
Method: Stock solutions of the tested compounds were prepared by dissolving about 3 mg of each compound in 3 mL of acetonitrile. Standards for test compounds were prepared by diluting 1 mL of the stock solution with an additional 4 mL of acetonitrile. These standards were stored at 4° C. Samples were prepared by diluting 1 mL of the stock solution with 4 mL of 50 mM pH 7.4 phosphate buffer. These samples were stored at 25° C. in the absence of light. Standards and samples were analyzed by LC/MS initially and at day 1, day 4, and day 6.
Mobile phase A: 10 mM pH 5 ammonium acetate buffer:methanol (90:10)
Mobile phase B: 10 mM pH 5 ammonium acetate buffer:methanol (10:90)
Column: Zorbax SB-Phenyl 4.6×50 mm, 1.8 μm
Column temperature: 40° C.
Detectors: UV at 220 nm and 236 nm
MS, ES ionization, positive mode, for identification only at final time point.
The terms reported in the tables below have the following meanings:
Area % is the integration of peak from HPLC as reported by Waters Empower II software.
RRT is the relative retention time of new product compared to the standard of the test compound.
ND stands for no peak detected by the UV detector.
* stands for no ion detected by the mass spectrometer.
In the following study, the solution stability of the compound of Example 47 was measured and compared to that of Compound Y. The compound of Example 47 is an iminothiadiazine dioxide compound of the invention. Compound Y is the corresponding iminopyrimidinone compound. The structures of the compound of Example 47 and of Compound Y are shown below. Studies were performed in pH 7.4 buffer at 25° C.

[2] = Solution stability, Example A (pH 7.4 phosphate buffer/MeOH, LC/MS); assay type: physicochemical
Method: The following comparative procedures were used.
A 1.05 mg/mL stock solution (5 mL) of Ex. 45 in MeOH was prepared. From the stock solution was taken out 1.25 mL and diluted to 25 mL with the addition of 23.75 mL of 10 mM phosphate buffer (pH 7.4)/MeOH (70/30 v/v). This new solution was split into three. One solution was incubated at 4° C., another incubated at 25° C. and the third incubated at 40° C. Each solution was analyzed by LC/MS after day 1, day 2 and day 6 and compared to a standard calibration curve for Ex. 45.
In the following study, the solution stability of the compound of Example 45 was measured and compared to that of Compound Z. The compound of Example 45 is an iminothiadiazine dioxide compound of the invention. Compound Z is the corresponding iminopyrimidinone compound. The structures of the compound of Example 45 and of Compound Z are shown below. Studies were performed in aqueous pH 7.4 buffer containing methanol at 4° C., 25° C. and 40° C.

[3] = Standard (acetonitrile, stored at 4° C.)

| Area %, Day 1; compound peak (RRT 1.00) ([1]; Sample at pH 7.4, 25° C.) [Area %] | Area %, Day 4; compound peak (RRT 1.00) ([1]; Sample at pH 7.4, 25° C.) [Area %] | Area %, Day 6; compound peak (RRT 1.00) ([1]; Sample at pH 7.4, 25° C.) [Area %] | Area %, Initial; compound peak (RRT 1.00) ([1]; Sample at pH 7.4, 25° C.) [Area %] | Area %, Day 1; compound peak (RRT 1.00) [1, 3] [Area %] | Area %, Day 4; compound peak (RRT 1.00) [1, 3] [Area %] | Area %, Day 6; compound peak (RRT 1.00) [1, 3] [Area %] | Area %, Initial; compound peak (RRT 1.00) [1, 3] [Area %] | Assay (Area %), class symbol ([2]; pH 7.4, 40° C., time not given) | Assay (Area %), class symbol ([2]; pH 7.4, 4° C., 2 days) | Assay (Area %), class symbol ([2]; pH 7.4, 4° C., 6 days) | Assay (Area %), class symbol ([2]; pH 7.4, 4° C., time not given) | Assay (Area %), class symbol ([2]; pH 7.4, 25° C., 2 days) | Assay (Area %), class symbol ([2]; pH 7.4, 25° C., 6 days) | Assay (Area %), class symbol ([2]; pH 7.4, 25° C., time not given) | Assay (Area %), class symbol ([2]; pH 7.4, 40° C., 2 days) | Assay (Area %), class symbol ([2]; pH 7.4, 40° C., 6 days) | SMILES |
| --- | --- | --- | --- | --- | --- | --- | --- | --- | --- | --- | --- | --- | --- | --- | --- | --- | --- |
| 98.56 | 98.53 | 98.53 | 98.55 | 98.55 | 98.52 | 98.52 | 98.53 |  |  |  |  |  |  |  |  |  | CC#Cc1cncc(-c2csc([C@]3(C)CS(=O)(=O)N(C)C(=N)N3)c2)c1 [Example 47] |
|  |  |  |  |  |  |  |  | — ((—) stands for >20% degradation) |  |  |  |  |  |  |  |  | CN1C(=N)N[C@](C)(c2cc(-c3cccc(C#N)c3)cs2)CS1(=O)=O [Example 45] |
|  |  |  |  |  |  |  |  | — ((—) stands for >20% degradation) | — ((—) stands for >20% degradation) | — ((—) stands for >20% degradation) | — ((—) stands for >20% degradation) | — ((—) stands for >20% degradation) | — ((—) stands for >20% degradation) | — ((—) stands for >20% degradation) | — ((—) stands for >20% degradation) | — ((—) stands for >20% degradation) | CN1C(=N)N[C@](C)(c2cc(-c3cccc(C#N)c3)cs2)CC1=O [Compound Z] |
